# Assays:
# Type in all cases: in vivo
# Corn = assay: pre-emergence herbicide test; settings: Zea mays, pre-emergence, read-out: % plant inhibition
# Procedure, shortened: (§1)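 Herbicidal effect was assessed as percent inhibition about 14 days after sowing. A known amount of compound was added to the covering topsoil, and the pans were subirrigated in a greenhouse.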
# Yellow Foxtail [1] = assay: pre-emergence herbicide test; settings: Setaria, read-out: % plant inhibition
# Procedure, shortened: as §1
# Barnyardgrass [2] = assay: pre-emergence herbicide test; settings: Echinochloa crus-galli, pre-emergence, read-out: % plant inhibition
# Procedure, shortened: as §1
# Yellow Nutsedge [3] = assay: pre-emergence herbicide test; settings: Cyperus, read-out: % plant inhibition
# Procedure, shortened: as §1
# Velvetleaf = assay: pre-emergence herbicide test; settings: Abutilon theophrasti, pre-emergence, read-out: % plant inhibition
# Procedure, shortened: as §1
# Rice = assay: pre-emergence herbicide test; settings: Oryza sativa, read-out: % plant inhibition
# Procedure, shortened: as §1
# Soybean = assay: pre-emergence herbicide test; settings: Glycine max, pre-emergence, read-out: % plant inhibition
# Procedure, shortened: as §1
# Morning Glory [4] = assay: pre-emergence herbicide test; settings: Ipomoea, pre-emergence, read-out: % plant inhibition
# Procedure, shortened: as §1
# Cocklebur [5] = assay: pre-emergence herbicide test; settings: Xanthium strumarium, pre-emergence, read-out: % plant inhibition
# Procedure, shortened: as §1
# Bedstraw Catchweed = assay: post-emergence herbicide test; settings: Galium aparine, post-emergence, read-out: % plant inhibition
# Procedure, shortened: (§2)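 Greenhouse pot test: seeds pressed into compacted topsoil in pans, covered, watered as needed; at two to three weeks plants were sprayed by atomizer at 170.3 kPa, 1870 L/Ha, with about 0.4% v/v emulsifier. Value is percent inhibition per species.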
# Yellow Foxtail [6] = assay: post-emergence herbicide test; settings: Setaria, read-out: % plant inhibition
# Procedure, shortened: as §2
# Common Chickweed = assay: post-emergence herbicide test; settings: post-emergence, read-out: % plant inhibition
# Procedure, shortened: as §2
# Barnyardgrass [7] = assay: post-emergence herbicide test; settings: Echinochloa crus-galli, post-emergence, read-out: % plant inhibition
# Procedure, shortened: as §2
# Yellow Nutsedge [8] = assay: post-emergence herbicide test; settings: Cyperus, read-out: % plant inhibition
# Procedure, shortened: as §2
# Morning Glory [9] = assay: post-emergence herbicide test; settings: Ipomoea, post-emergence, read-out: % plant inhibition
# Procedure, shortened: as §2
# Cocklebur [10] = assay: post-emergence herbicide test; settings: Xanthium strumarium, post-emergence, read-out: % plant inhibition
# Procedure, shortened: as §2
smiles,measurement,setting,value
Cc1c(-c2cc(O)c(Cl)cc2F)nn(C)c1C(F)(F)F [Compound 40],inhibition at 40.0143 g/ha,Corn; 0.0357 lb/A,0%
same,inhibition at 200.072 g/ha,Corn; 0.1785 lb/A,0%
same,inhibition at 1000.92 g/ha,Corn; 0.893 lb/A,5%
same,inhibition at 5043.82 g/ha,Corn; 4.5 lb/A,85%
same,inhibition at 40.0143 g/ha,Yellow Foxtail [1]; 0.0357 lb/A,0%
same,inhibition at 200.072 g/ha,Yellow Foxtail [1]; 0.1785 lb/A,0%
same,inhibition at 1000.92 g/ha,Yellow Foxtail [1]; 0.893 lb/A,80%
same,inhibition at 5043.82 g/ha,Yellow Foxtail [1]; 4.5 lb/A,100%
same,inhibition at 40.0143 g/ha,Barnyardgrass [2]; 0.0357 lb/A,0%
same,inhibition at 200.072 g/ha,Barnyardgrass [2]; 0.1785 lb/A,0%
same,inhibition at 1000.92 g/ha,Barnyardgrass [2]; 0.893 lb/A,35%
same,inhibition at 5043.82 g/ha,Barnyardgrass [2]; 4.5 lb/A,100%
same,inhibition at 40.0143 g/ha,Yellow Nutsedge [3]; 0.0357 lb/A,0%
same,inhibition at 200.072 g/ha,Yellow Nutsedge [3]; 0.1785 lb/A,0%
same,inhibition at 1000.92 g/ha,Yellow Nutsedge [3]; 0.893 lb/A,70%
same,inhibition at 5043.82 g/ha,Yellow Nutsedge [3]; 4.5 lb/A,0%
same,inhibition at 40.0143 g/ha,Velvetleaf; 0.0357 lb/A,0%
same,inhibition at 200.072 g/ha,Velvetleaf; 0.1785 lb/A,0%
same,inhibition at 1000.92 g/ha,Velvetleaf; 0.893 lb/A,60%
same,inhibition at 5043.82 g/ha,Velvetleaf; 4.5 lb/A,100%
same,inhibition at 40.0143 g/ha,Rice; 0.0357 lb/A,0%
same,inhibition at 200.072 g/ha,Rice; 0.1785 lb/A,0%
same,inhibition at 1000.92 g/ha,Rice; 0.893 lb/A,0%
same,inhibition at 5043.82 g/ha,Rice; 4.5 lb/A,65%
same,inhibition at 40.0143 g/ha,Soybean; 0.0357 lb/A,0%
same,inhibition at 200.072 g/ha,Soybean; 0.1785 lb/A,0%
same,inhibition at 1000.92 g/ha,Soybean; 0.893 lb/A,20%
same,inhibition at 5043.82 g/ha,Soybean; 4.5 lb/A,20%
same,inhibition at 40.0143 g/ha,Morning Glory [4]; 0.0357 lb/A,0%
same,inhibition at 200.072 g/ha,Morning Glory [4]; 0.1785 lb/A,0%
same,inhibition at 1000.92 g/ha,Morning Glory [4]; 0.893 lb/A,50%
same,inhibition at 5043.82 g/ha,Morning Glory [4]; 4.5 lb/A,100%
same,inhibition at 40.0143 g/ha,Cocklebur [5]; 0.0357 lb/A,0%
same,inhibition at 200.072 g/ha,Cocklebur [5]; 0.1785 lb/A,0%
same,inhibition at 1000.92 g/ha,Cocklebur [5]; 0.893 lb/A,45%
same,inhibition at 5043.82 g/ha,Cocklebur [5]; 4.5 lb/A,100%
same,inhibition at 40.0143 g/ha,Bedstraw Catchweed; 0.0357 lb/A,20%
same,inhibition at 200.072 g/ha,Bedstraw Catchweed; 0.1785 lb/A,60%
same,inhibition at 1000.92 g/ha,Bedstraw Catchweed; 0.893 lb/A,98%
same,inhibition at 5043.82 g/ha,Bedstraw Catchweed; 4.5 lb/A,100%
same,inhibition at 40.0143 g/ha,Yellow Foxtail [6]; 0.0357 lb/A,0%
same,inhibition at 200.072 g/ha,Yellow Foxtail [6]; 0.1785 lb/A,0%
same,inhibition at 1000.92 g/ha,Yellow Foxtail [6]; 0.893 lb/A,10%
same,inhibition at 5043.82 g/ha,Yellow Foxtail [6]; 4.5 lb/A,100%
same,inhibition at 40.0143 g/ha,Common Chickweed; 0.0357 lb/A,15%
same,inhibition at 200.072 g/ha,Common Chickweed; 0.1785 lb/A,50%
same,inhibition at 1000.92 g/ha,Common Chickweed; 0.893 lb/A,98%
same,inhibition at 5043.82 g/ha,Common Chickweed; 4.5 lb/A,98%
same,inhibition at 40.0143 g/ha,Barnyardgrass [7]; 0.0357 lb/A,0%
same,inhibition at 200.072 g/ha,Barnyardgrass [7]; 0.1785 lb/A,0%
same,inhibition at 1000.92 g/ha,Barnyardgrass [7]; 0.893 lb/A,65%
same,inhibition at 5043.82 g/ha,Barnyardgrass [7]; 4.5 lb/A,85%
same,inhibition at 40.0143 g/ha,Yellow Nutsedge [8]; 0.0357 lb/A,70%
same,inhibition at 200.072 g/ha,Yellow Nutsedge [8]; 0.1785 lb/A,55%
same,inhibition at 1000.92 g/ha,Yellow Nutsedge [8]; 0.893 lb/A,0%
same,inhibition at 5043.82 g/ha,Yellow Nutsedge [8]; 4.5 lb/A,0%
same,inhibition at 40.0143 g/ha,Morning Glory [9]; 0.0357 lb/A,50%
same,inhibition at 200.072 g/ha,Morning Glory [9]; 0.1785 lb/A,70%
same,inhibition at 1000.92 g/ha,Morning Glory [9]; 0.893 lb/A,80%
same,inhibition at 5043.82 g/ha,Morning Glory [9]; 4.5 lb/A,100%
same,inhibition at 40.0143 g/ha,Cocklebur [10]; 0.0357 lb/A,80%
same,inhibition at 200.072 g/ha,Cocklebur [10]; 0.1785 lb/A,65%
same,inhibition at 1000.92 g/ha,Cocklebur [10]; 0.893 lb/A,70%
same,inhibition at 5043.82 g/ha,Cocklebur [10]; 4.5 lb/A,100%

# — patent publication US5672715A, “Herbicidal substituted 3-aryl-pyrazoles” (Monsanto Company, priority 1995, dated 1997)
